Key:
[1] = test system: VdU-labeled DNA in living Hela cells; assay: Live-cell metabolic labeling, PINK staining kinetics; assay type: cell-based
Description: To evaluate the ability of PINK to enter live cells and undergo fluorogenic reactions with vinyl groups in native chromatin, Hela cells were grown in rich media containing 10 μM VdU for 15 h and subsequently stained with 1-2 μM PINK for 4 h. Total cellular DNA was counterstained with Hoechst […] (5 μM; 405 nm laser; emission 410-480 nm) for 10 minutes prior to imaging PINK (514 nm laser; emission 570-700 nm). Control (ctrl) samples were treated with PINK but not VdU. All cells were treated and maintained in DMEM media containing 10% FBS and grown in 5% CO2 at 37° C. Live cell images were acquired using a confocal microscope.
The intracellular reaction kinetics of PINK staining was next investigated. Cells were seeded at a concentration of 2.5×10^4 cells/mL, allowed to settle overnight, and incubated with 100 μM VdU for 24 h. Cells were stained with 10 μM PINK between 10 min and 25 h, co-stained with Hoechst 33342 (5 μg/mL), and images were acquired on a confocal microscope. Samples were optimized for an ideal signal to noise ratio after staining for 1 h, illustrating a sufficiently bright signal at this stage. Ctrl samples were exposed to PINK for 25 h, thus explaining the relatively high background. […] Labeling was efficient in multiple cell lines. U2OS cells were seeded in μ-slide 8-well (Ibidi®) (3.0×10^4 cells in 200 μL; 1.5×10^5 cells/mL) in DMEM and given 20 h to settle. Cells were aspirated and VdU (0-100 μM in 200 μL DMEM) was added. Cells were incubated for 18 h, aspirated, and PINK (5 μM in 200 μL DMEM, 0.05% DMSO) was added. Cells were incubated for 5 h, aspirated, and Hoechst 33342 (2 μg/mL in 200 μL DMEM) was added for 15 min. Cells were aspirated and the media was exchanged for 200 μL DMEM (-Phenol Red). Images were acquired on a confocal microscope (FIG. 11). […] Cells (5.0×10^4 cells/mL) were seeded and allowed to settle overnight. Cells were incubated with 20 μM VdU for 16 h and stained with 2 μM PINK for 5 h, Cells were aspirated and fresh media (w/o Phenol Red) was added. Control Samples received identical treatment, but were not exposed to VdU. […]

MOLM-13 cells = assay: Cell counting assay (Trypan Blue); assay type: cell-based, human; details: MOLM-13, 5 μM nucleoside, 1 μM PINK
Description: (§1) To confirm the cytotoxicity results obtained from the resazurin assays, a cell counting assay was conducted using Trypan Blue. It is an azo dye allows to discriminate between viable cells and dead cells, since dead cells will take in the dye, while viable cells will remain white. 28 From the resazurin assays, and after some optimization based on cell sensitivity to the vinyl-nucleosides, it was determined that […] and 5 μM of vinyl-nucleosides alone and in combination with 1 μM of PINK were two interesting concentrations to explore in Jurkat, MV4-11, and MOLM-13 cells. Cells were incubated with 5 μM or 10 μM of each nucleoside overnight (Day 0), and 1 μM of PINK was added for the combinations and PINK alone 24h post nucleoside incubation (Day 1). The cells were counted every 24h.
(§2) Cell Counting Assay. Jurkat, MV4-11 and MOLM-13 cells were seeded in 12-well plates at a density of 500 000 cells/mL, 175 000 cells/mL and 375 000 cells/mL, respectively, in duplicates. The cells were incubated overnight in fresh media containing 10 μM (Jurkat) or 5 μM (MV4-11 and MOLM-13) of each nucleoside (˜0.01% DMSO). 24h post nucleoside addition, 1 μM of PINK (˜0.01% DMSO) were added to the respective wells and incubated for 24 h. The cells were counted using a cell counter (BIO RAD TC20) to determine the percentage of viable cells and the cell concentration. The cells were counted every 24h using Trypan Blue in a 1:1 ratio.

MV4-11 cells = assay: Cell counting assay (Trypan Blue); assay type: cell-based, human; details: MV4-11, 5 μM nucleoside, 1 μM PINK
Description: as §1, §2

Jurkat cells = assay: Cell counting assay (Trypan Blue); assay type: cell-based, human; details: 10 μM nucleoside, 1 μM PINK
Description: as §1, §2

[2] = 100 μM VdU 24 h, then 10 μM PINK

SMILES	retention of fluorescent signal in living cells ([1]; 20 μM VdU 16 h, 2 μM PINK 5 h, fresh media, t=0, 24 h)	incubation time after which a clear signal above background is observed [1, 2] [h]	staining duration ideal to achieve complete labeling [1, 2] [h]	cell concentration (cell growth) (MOLM-13 cells)	cell concentration (cell growth) (MV4-11 cells)	cell concentration (cell growth) (Jurkat cells)
Cc1nnc(-c2ccc3cc4ccc(N(C)C)cc4nc3c2)nn1 [PINK]	retained in living cells 24 h after being removed from the media	1	5			
C=Cc1cn([C@H]2C[C@H](O)[C@@H](CO)O2)c(=O)[nH]c1=O [VdU, 5-vinyl-2′-deoxyuridine]				seem to inhibit cell growth	significantly inhibited cell growth	more impact on cell growth than expected from the resazurin assay

From US20250127774A1, “COMPOUNDS FOR LABELLING NUCLEIC ACID AND USES THEREOF” (THE ROYAL INSTITUTION FOR THE ADVANCEMENT OF …, priority 2022, published 2025)
